Measurements: ChEMBL document CHEMBL1201862, “PubChem BioAssay data set” (2004)
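Tested at 5 concentrations; 48 h exposure; 96-well plates; endpoints linearly interpolated, else capped at highest concentration. GI50 = concentration required for 50% inhibition of growth.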 Active and inactive are the calls of the source. Rule as the data show it: active = GI50 up to about 1.1 µM and inactive = higher.

Experiments:
Assay in all cases: NCI-60 cell line screen, 48 h
[1] = tested on: EKVX
[2] = tested on: A498
[3] = tested on: RXF 393
[4] = tested on: SW-620
[5] = tested on: SK-OV-3
[6] = tested on: SNB-75
[7] = tested on: M19-MEL
[8] = tested on: SK-MEL-2
[9] = tested on: SK-MEL-5
[10] = tested on: U-251
[11] = tested on: SN12C
[12] = tested on: SNB-78
[13] = tested on: CCRF-CEM
[14] = tested on: SNB-19
[15] = tested on: HOP-92
[16] = tested on: KM-20L2
[17] = tested on: HT-29
[18] = tested on: SK-MEL-28
[19] = tested on: RPMI-8226
[20] = tested on: HL-60

SMILES | GI50 [1] | GI50 [2] | GI50 [3] | GI50 [4] | GI50 [5] | GI50 [6] | GI50 [7] | GI50 [8] | GI50 [9] | GI50 [10] | GI50 [11] | GI50 [12] | GI50 [13] | GI50 [14] | GI50 [15] | GI50 [16] | GI50 [17] | GI50 [18] | GI50 [19] | GI50 [20]
COC(=O)C(=O)C(C(=O)Nc1cccc(C)c1C)C1Sc2ccccc2NC1=O (centres undefined) | > 25 µM (inactive) | 11.5 µM (inactive) | 7.55 µM (inactive) | 8.55 µM (inactive) | > 25 µM (inactive) | 9.84 µM (inactive) | 14.6 µM (inactive) | 5.75 µM (inactive) | 8.11 µM (inactive) | 12.3 µM (inactive) | > 25 µM (inactive) | 21.2 µM (inactive) | > 25 µM (inactive) | 21.9 µM (inactive) | 10.4 µM (inactive) | 8.67 µM (inactive) | 7.8 µM (inactive) | 14.6 µM (inactive) | 9.48 µM (inactive) | 4.89 µM (inactive)
CCC(=O)c1c(NOC2OCC(OC(C)=O)C(OC(C)=O)C2OC(C)=O)nc(OC)n(C)c1=O (centres undefined) | > 100 µM (inactive) | > 100 µM (inactive) | > 100 µM (inactive) | > 100 µM (inactive) | > 100 µM (inactive) | > 100 µM (inactive) | > 100 µM (inactive) |  | > 100 µM (inactive) | > 100 µM (inactive) | > 100 µM (inactive) | > 100 µM (inactive) | > 100 µM (inactive) | > 100 µM (inactive) | > 100 µM (inactive) | > 100 µM (inactive) | > 100 µM (inactive) | > 100 µM (inactive) | > 100 µM (inactive) | > 100 µM (inactive)
Cc1cc(C)c(C2=NO[C@@H]3[C@H]2C(=O)C=C2N(Cc4ccccc4)CCO[C@@]23O)c(C)c1 | > 100 µM (inactive) | > 100 µM (inactive) | > 100 µM (inactive) | > 100 µM (inactive) | > 100 µM (inactive) | > 94.2 µM (inactive) | > 100 µM (inactive) | > 100 µM (inactive) | > 100 µM (inactive) | > 100 µM (inactive) | > 100 µM (inactive) | > 100 µM (inactive) | > 100 µM (inactive) | > 100 µM (inactive) | > 100 µM (inactive) | > 100 µM (inactive) | > 100 µM (inactive) | > 100 µM (inactive) | > 100 µM (inactive) | > 100 µM (inactive)
CN(C)CCNC(=O)c1ccc(Cl)c2ccc(-c3ccccc3)nc12 |  | 5.16 µM (inactive) | 5.38 µM (inactive) | 2.19 µM (inactive) | 4.7 µM (inactive) | 3.57 µM (inactive) | 3.69 µM (inactive) | 7.67 µM (inactive) | 1.95 µM (inactive) | 2.93 µM (inactive) | 3.85 µM (inactive) | 6.32 µM (inactive) | 2.16 µM (inactive) | 3.06 µM (inactive) | 2.02 µM (inactive) | 2.62 µM (inactive) | 2.77 µM (inactive) | 4.27 µM (inactive) | 2.51 µM (inactive) | 2.58 µM (inactive)
COCC1N=C(c2cc(OC)c(OC)c(OC)c2-c2cc3c(cc2[C@@H](C)O)OCO3)O[C@H]1c1ccccc1 (some centres undefined) | 36.8 µM (inactive) | > 94.4 µM (inactive) | 33.7 µM (inactive) | > 100 µM (inactive) | 97.5 µM (inactive) | 25.9 µM (inactive) | > 90.8 µM (inactive) | > 53.3 µM (inactive) | > 76.7 µM (inactive) | 53.2 µM (inactive) | 52.1 µM (inactive) | > 45.2 µM (inactive) | > 100 µM (inactive) | 73.1 µM (inactive) | 34.4 µM (inactive) | 98.2 µM (inactive) | 75.9 µM (inactive) | > 68.4 µM (inactive) | 97.5 µM (inactive) | > 100 µM (inactive)
COc1cc(C2c3cc4c(cc3[C@@H](Nc3cccc([N+](=O)[O-])c3)C3COC(=O)[C@H]23)OCO4)cc(OC)c1O (some centres undefined) | 3.56 µM (inactive) | 1.46 µM (inactive) | 2.21 µM (inactive) | 2.28 µM (inactive) | 2.51 µM (inactive) | 4.1 µM (inactive) | 4.01 µM (inactive) | 5.4 µM (inactive) | 1.88 µM (inactive) | 1.94 µM (inactive) | 2.75 µM (inactive) | 5.66 µM (inactive) | 0.4 µM (active) | 2.5 µM (inactive) | 2.92 µM (inactive) | 3.64 µM (inactive) | 2.6 µM (inactive) | 5.36 µM (inactive) | 3.05 µM (inactive) | 1.05 µM (active)
COc1ccc2cc3[n+](cc2c1OC)CCc1cc2c(cc1-3)OCO2 [BERBERINE CHLORIDE] |  | 95.9 µM (inactive) | 68.5 µM (inactive) | 40.6 µM (inactive) | 84.5 µM (inactive) | 36.5 µM (inactive) | 5.56 µM (inactive) | 25.3 µM (inactive) | 4.95 µM (inactive) |  |  | 53.8 µM (inactive) | 13.2 µM (inactive) | 8.38 µM (inactive) | 36.7 µM (inactive) | 28.2 µM (inactive) | 31 µM (inactive) | 22.2 µM (inactive) |  | 13.6 µM (inactive)
